≈ marks a conversion by molar mass, not a printed value. Entries after “also recorded” stand apart in the source; their conditions may differ. Structures can show the parent of a compound that is named as a salt.
Tests used:
[1] = Stability in water (D2O) by 1H NMR; type: physicochemical; settings: room temperature, Succinate Sodium Salt
Procedure: Sodium triptolide succinate, designated YM-274, was dissolved in D2 O, and the aqueous solution was stored at room temperature.
A solution of sodium triptolide succinate (YM-274) in D2 O was prepared at a concentration of 3 mg/ml and stored at room temperature. The solution was analyzed by ^1 H NMR at intervals of 1, 3, 5, 15, 45, 90, 180 minutes; 1, 7, 14 days; and 1, 2, 3, and 5 months.

[2] = system: male fertility; assay: Effect on fertility in male mice; type: in vivo, mouse (BDF1)
Procedure: The compounds of the invention are also effective in reducing or inhibiting male fertility, wherein administration of a compound of the invention to a male mammal is effective to reduce the potency of the male's semen, thereby reducing or blocking fertilization. Triptolide succinate (YM-262) was tested for inhibition of fertility in male BDF1 mice, according to protocols described in Example 15. The compound was administered intraperitoneally (IP) in a saline solution, using a cycle of daily administration for 5 days followed by a two day cessation of treatment. Dose levels were 0.04 or 0.13 mg/kg/day. The cycle was repeated for 5 weeks before evaluation of physiological effects (testis weight) and reproductive performance.
The effect of the compound on fertility was tested with groups of five male mice treated according to the same schedule. Each male was housed with two females starting on day 32, after termination of YM-262 treatment.
Triptolide succinate (YM-262) was tested for fertility control in male BDF1 mice, using a cycle of daily administration for 5 days followed by a two day cessation of treatment. The cycle was repeated for 5 weeks, with dosing on days 0-4, 7-11, 14-18, 21-25 and 28-32 before evaluation of physiological effects and reproductive performance.
A dosing solution of YM-262 was prepared once a week from a stock solution in saline at 1.0 mg/ml and stored at 4° C. […]

[3] = system: male fertility; assay: Effect on fertility in male mice; type: in vivo, mouse (BDF1); settings: for delay of time from cohabitation to birth / increase in time from cohabitation to birth: vs control
[4] = Cytotoxicity by MTT reduction reported with the MLR assay (Table II); type: cell-based; settings: cytotoxic when toxicity greater than 25%
Procedure: Potential cytotoxicity of the test samples was assessed by the measurement of their effect on the reduction of MTT (3-[4,5-Dimethylthiazole-2-yl]-2,5-diphenyltetrazolium bromide) by cultured cells. MTT, a yellow-colored compound, is reduced by mitochondrial enzymes to form the purple crystalline reduction product formazane, providing an index of cellular respiration on viable cells as well as a sensitive assay for cytotoxicity (Mossmann, 1983).
The cytotoxicity was assessed in cultured human PBMC and mouse thymocytes. A stock solution of MTT (Sigma) at 5 mg/ml in phosphate buffered saline, pH 7.4, was prepared and stored in the dark at 4° C. PBMCs or thymocytes were cultured with various concentrations of test samples in flatbottom 96-well tissue culture plates (Costar) under the same conditions as those described above, but the stimulants (X-35 or IL-1+PHA) were replaced by appropriate medium. Untreated cells with medium alone and without the test samples were used as controls. After incubation for 21 hours, 25 μl of MTT solution was added to each well. After an additional three hours of incubation, the experiment was terminated by addition of a solution of 10% sodium dodecyl sulfate in 0.01 N HCl. Following overnight incubation at 37° C. to solubilize the formazane crystals, optical density was determined at 570-650 nm in microplate reader. […]

[5] = 0.03 mg/kg/day (so in the source) i.p.
[6] = 0.1 mg/kg/day (so in the source) i.p.

## CC(C)C12OC1C1OC13C1(C)CCC4=C(COC4=O)C1CC1OC13C2OC(=O)CCC(=O)O (stereo not drawn) [YM-274, Triptolide Succinate Sodium Salt]
[1]; 3 months
  stability in aqueous solution, three months: no appreciable change in the NMR spectrum; also recorded: unchanged after three months in solution
[1]; 5 months
  stability in aqueous solution, five months: Some decomposition was apparent; also recorded: some decomposition was observed

## CC(C)C12OC1C1OC13C1(C)CCC4=C(COC4=O)C1CC1OC13C2OC(=O)CCC(=O)O (stereo not drawn) [YM-262, Triptolide Succinate]
[2]; 0.13 mg/kg/day i.p. over 32 days
  delay of recovery of fertility after termination of therapy: 21 days
[2]; after cessation of administration
  reversibility of antifertility effect: the antifertility effect was reversible; also recorded: the control of fertility was reversible
[3]; [5]
  time from beginning of cohabitation to birth of litters: 28 days
  delay of time from cohabitation to birth: 17%
[3]; 0.04 mg/kg/day i.p.
  period of unproductive mating: approximately four-day period of unproductive mating
  time from beginning of cohabitation to birth of litters: 28 days
  delay of time from cohabitation to birth: 17%
[3]; [6]
  time from cohabitation to birth: 45 days
  increase in time from cohabitation to birth: 88%
[3]; 0.1 mg/kg/day (so in the source) i.p. over 32 days
  delay of recovery of fertility after termination of therapy: 21 days
[3]; 0.13 mg/kg/day i.p.
  time from cohabitation to birth: 45 days
  increase in time from cohabitation to birth: 88%

## CC(C)[C@]12O[C@H]1[C@@H]1O[C@]13[C@]1(O[C@H]1C[C@H]1C4=C(CC[C@@]13C)C(=O)OC4)[C@@H]2O [Triptolide, triptolide, reference compound]
[4]
  CC50 at 24 h: 0.0133 µg/mL (≈ 0.0369 µM)
